The subject of one series is LoVo Colon cell line. The series is described as follows: Cytotoxicity assay using LoVo colon cell line, SRB. The series is classed as cell-based. The note with it: Homo sapiens, 96 h; Cellular activity in LoVo cell; 4 days incubation, SRB; read-out: Inhibition of LoVo. The gist of the method:
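Growth inhibition read by sulforhodamine B after 4-day compound exposure at 37 °C. Colon LoVo cells plated at 4000 per well in RPMI/10% FBS a day earlier; doses ranged 5 pM-20 μM or 170 pg/ml-10 μg/ml. IC50 is the concentration halving proliferation versus untreated wells.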

For series [1], the system named is 80S14 (p21-deficient) cells. The series is described as follows: Cytotoxicity assay using isogenic cell lines: IC50 in 80S14 (p21-deficient) cells, SRB. To be noted: Homo sapiens, 120 h; 80S14 (p21-deficient) cells, 5 days, SRB; class symbols; read-out: IC50 for 80S14. The series is classed as cell-based, human. The gist of the method:
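IC50 is the concentration halving proliferation relative to untreated controls, read from SRB absorbance (560 nm) after TCA fixation. Test agent dilutions (5 pM–50 μM or 170 pg/ml–10 μg/ml) were left on p21-deficient 80S14 cells (12,000/well, pre-incubated overnight) for 5 days at 37 °C.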

A word on the melting point: it is the temperature of the solid-liquid transition.

Each structure is given as a SMILES string.

Compound `O=C(Nc1cccc(-c2ccnc3c(C(=O)c4cccs4)cnn23)c1)OCCCN1CCS(=O)(=O)CC1` [Example 420, 3-(1,1-Dioxidothiomorpholin-4-yl)propyl 3-[3-(thien-2-ylcarbonyl)pyrazolo[1,5-a]pyrimidin-7-yl]phenylcarbamate] returned a melting point of 148 to 159 °C. In addition, the IC50 with LoVo Colon cell line was 0.1 to 1 µM. In addition, the IC50 in series [1] was less than 1 µM.

For `CC(C)CC(=O)Nc1cccc(-c2ccnc3c(-c4cccc(N)c4)cnn23)c1` [Example 464, N-{3-[3-(3-Aminophenyl)pyrazolo[1,5-a]pyrimidin-7-yl]phenyl}-3-methylbutanamide], the melting point was 173 to 175 °C. In addition, in the series with LoVo Colon cell line, the IC50 fell in the range of 1 to 20 µM. Also, the IC50 in series [1] is 10 to 50 µM.

With `O=C(Nc1cccc(-c2ccnc3c(C(=O)c4cccs4)cnn23)c1)c1ccccc1F` [Example 358, 2-Fluoro-N-{3-[3-(thien-2-ylcarbonyl)pyrazolo[1,5-a]pyrimidin-7-yl]phenyl}benzamide], the melting point lay within 190 to 191 °C. Also, the IC50 with LoVo Colon cell line is less than 0.1 µM. In addition, in series [1], the IC50 is less than 1 µM.

Compound `CC(C)CCNc1cccc(-c2ccnc3c(C(=O)c4cccs4)cnn23)c1` [Example 350, {7-[3-(Isopentylamino)phenyl]pyrazolo[1,5-a]pyrimidin-3-yl}(thien-2-yl)methanone] displayed a melting point of 75 to 77 °C. Also, the IC50 in the series with LoVo Colon cell line is less than 0.1 µM. Besides, the IC50 in series [1] is less than 1 µM.

The record behind these values is US20060063784A1, “Method of using substituted pyrazolo [1,5-a] pyrimidines” (priority 2004, published 2006).
